Measured values reported in patent publication US9353082B2, “Pharmaceutical compounds” (BIAL—PORTELA & CA, S.A., priority 2008, dated 2016).

Legend:
[1] = target: T1, FAAH (Rattus norvegicus, UniProt P97612); test: In vitro FAAH activity in rat brain membranes, 3H-AEA substrate, % of control; format: biochemical, Wistar rats; details: low value = strong inhibitor; for In Vitro FAAH activity, 100 nM: 100 nM test compound; for In Vitro FAAH activity, 10 uM: 10 uM test compound
T1 construct: Frozen brains (without cerebellum) from Wistar rats were used; from tissue; host or cells: Wistar rat brain (without cerebellum), washed membrane pellets
T1 sequence (P97612 1-579): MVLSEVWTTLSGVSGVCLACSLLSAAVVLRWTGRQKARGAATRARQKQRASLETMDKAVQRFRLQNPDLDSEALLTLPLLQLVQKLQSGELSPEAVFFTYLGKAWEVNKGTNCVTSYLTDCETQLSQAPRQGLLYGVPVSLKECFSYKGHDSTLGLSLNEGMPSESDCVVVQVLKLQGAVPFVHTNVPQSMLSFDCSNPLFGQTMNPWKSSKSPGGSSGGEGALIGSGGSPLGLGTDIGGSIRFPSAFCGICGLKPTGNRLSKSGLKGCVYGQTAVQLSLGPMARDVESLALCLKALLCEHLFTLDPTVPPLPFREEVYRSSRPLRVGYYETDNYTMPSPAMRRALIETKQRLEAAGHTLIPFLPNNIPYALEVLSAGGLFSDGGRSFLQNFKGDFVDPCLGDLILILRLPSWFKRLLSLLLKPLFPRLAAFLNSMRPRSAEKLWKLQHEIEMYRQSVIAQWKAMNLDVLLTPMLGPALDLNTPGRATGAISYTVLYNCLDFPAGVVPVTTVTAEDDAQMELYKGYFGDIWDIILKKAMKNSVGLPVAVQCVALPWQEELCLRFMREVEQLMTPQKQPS
How it was run: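 FAAH activity measured as 3H-ethanolamine released from 2 μM [3H]AEA over 10 min by rat brain membrane preparation, after 15 min 37 °C preincubation with test compound at 10 or 0.1 μM. Charcoal-separated supernatant scintillation-counted; values expressed as % of control minus no-protein blank.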

[2] = target: T2, FAAH (Mus musculus, UniProt O08914); test: In vivo FAAH inhibition after oral dosing, remaining activity in brain homogenate (BRh, central nervous tissue); parameters: species or system NMRI mice; details: brain homogenate
T2 construct: A fragment of liver, left lung lobe and brain without cerebellum were removed; from tissue; host or cells: male NMRI mice; brain (without cerebellum) and liver homogenates
T2 sequence (O08914 1-579): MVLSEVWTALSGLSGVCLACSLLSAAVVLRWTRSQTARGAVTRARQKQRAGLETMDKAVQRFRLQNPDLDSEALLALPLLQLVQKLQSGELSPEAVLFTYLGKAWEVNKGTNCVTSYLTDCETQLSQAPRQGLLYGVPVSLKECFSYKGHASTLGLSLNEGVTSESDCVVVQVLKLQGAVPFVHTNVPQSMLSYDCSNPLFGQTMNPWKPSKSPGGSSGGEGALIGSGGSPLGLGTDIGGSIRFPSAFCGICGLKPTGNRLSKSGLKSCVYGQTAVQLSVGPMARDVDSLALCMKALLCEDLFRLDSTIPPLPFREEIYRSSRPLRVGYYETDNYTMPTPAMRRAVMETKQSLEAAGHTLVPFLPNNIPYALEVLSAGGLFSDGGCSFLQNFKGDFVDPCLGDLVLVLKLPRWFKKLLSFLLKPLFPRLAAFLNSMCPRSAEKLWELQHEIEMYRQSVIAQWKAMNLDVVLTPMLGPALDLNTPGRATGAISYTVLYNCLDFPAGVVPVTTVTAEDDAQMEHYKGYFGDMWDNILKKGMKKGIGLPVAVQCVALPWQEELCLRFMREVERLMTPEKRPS
How it was run: (§1)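 Remaining FAAH activity is given as % of vehicle-treated controls after blank subtraction, measured by radiolabelled AEA hydrolysis (2 μM AEA, 5 nM 3H-AEA, 37 °C) in brain (10 min) or liver (7 min) homogenates. These came from fasted male NMRI mice dosed orally at 30 or 3 mg/kg.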

[3] = target: T2, FAAH; test: In vivo FAAH inhibition after oral dosing, remaining activity in liver homogenate (LVh, peripheral tissue); parameters: species or system NMRI mice; details: liver homogenate
How it was run: as §1

CN(C(=O)n1nnc2ccccc21)c1ccccc1 [Compound 34, N-methyl-N-phenyl-1H-benzo[d][1,2,3]triazole-1-carboxamide]
In Vitro FAAH activity, 100 nM [1]: 0.6 % of control
In Vitro FAAH activity, 10 uM [1]: 0 % of control
In Vivo BRh 30 mg/kg 1 h, remaining FAAH activity [2]: 33.6 % of control
In Vivo LVh 30 mg/kg 1 h, remaining FAAH activity [3]: 34.3 % of control

CN(C(=O)n1cnc(-c2cccc(O)c2)c1)c1ccccc1 [Compound 40, 4-(3-hydroxyphenyl)-N-methyl-N-phenyl-1H-imidazole-1-carboxamide]
In Vitro FAAH activity, 100 nM [1]: 88.8 % of control
In Vitro FAAH activity, 10 uM [1]: 0.1 % of control
In Vivo BRh 3 mg/kg 8 h, remaining FAAH activity [2]: 102.8 % of control
In Vivo BRh 30 mg/kg 1 h, remaining FAAH activity [2]: 81.5 % of control
In Vivo LVh 3 mg/kg 8 h, remaining FAAH activity [3]: 25.6 % of control
In Vivo LVh 30 mg/kg 1 h, remaining FAAH activity [3]: 4.5 % of control

O=C(N1CCN(c2ccccc2)CC1)n1nnc2ccccc21 [Compound 41, (1H-benzo[d][1,2,3]triazol-1-yl)(4-phenylpiperazin-1-yl)methanone]
In Vitro FAAH activity, 100 nM [1]: 0 % of control
In Vitro FAAH activity, 10 uM [1]: 0 % of control
In Vivo BRh 30 mg/kg 1 h, remaining FAAH activity [2]: 87.6 % of control
In Vivo LVh 30 mg/kg 1 h, remaining FAAH activity [3]: 30 % of control

O=C(N1CCC(Cc2ccccc2)CC1)n1nnc2ccccc21 [Compound 42, (1H-benzo[d][1,2,3]triazol-1-yl)(4-benzylpiperidin-1-yl)methanone]
In Vitro FAAH activity, 100 nM [1]: 0 % of control
In Vitro FAAH activity, 10 uM [1]: 0 % of control
In Vivo BRh 30 mg/kg 1 h, remaining FAAH activity [2]: 8.4 % of control
In Vivo LVh 30 mg/kg 1 h, remaining FAAH activity [3]: 6.4 % of control

O=C(N1CCN(Cc2ccc3c(c2)OCO3)CC1)n1nnc2ccccc21.O=C(O)C(=O)O [Compound 48, (1H-benzo[d][1,2,3]triazol-1-yl)(4-(benzo[d][1,3]dioxol-5-ylmethyl)piperazin-1-yl)methanone oxalate]
In Vitro FAAH activity, 100 nM [1]: 0.1 % of control
In Vivo BRh 30 mg/kg 1 h, remaining FAAH activity [2]: 21.8 % of control
In Vivo LVh 30 mg/kg 1 h, remaining FAAH activity [3]: 20.1 % of control

O=C(N1CCN(c2ccccn2)CC1)n1nnc2ccccc21 [Compound 49, (1H-benzo[d][1,2,3]triazol-1-yl)(4-(pyridin-2-yl)piperazin-1-yl)methanone]
In Vitro FAAH activity, 100 nM [1]: 0.1 % of control
In Vivo BRh 30 mg/kg 1 h, remaining FAAH activity [2]: 16.9 % of control
In Vivo LVh 30 mg/kg 1 h, remaining FAAH activity [3]: 14.9 % of control

O=C(N1CCc2ccccc2C1)n1nnc2ccccc21 [Compound 50, (1H-benzo[d][1,2,3]triazol-1-yl)(3,4-dihydroisoquinolin-2(1H)-yl)methanone]
In Vitro FAAH activity, 100 nM [1]: 0 % of control
In Vivo BRh 30 mg/kg 1 h, remaining FAAH activity [2]: 32.6 % of control
In Vivo LVh 30 mg/kg 1 h, remaining FAAH activity [3]: 7.8 % of control

O=C(N1CCCc2ccccc21)n1cnc(-c2cccc(O)c2)c1 [Compound 51, (3,4-dihydroquinolin-1(2H)-yl)(4-(3-hydroxyphenyl)-1H-imidazol-1-yl)methanone]
In Vitro FAAH activity, 100 nM [1]: 100.8 % of control
In Vivo BRh 3 mg/kg 8 h, remaining FAAH activity [2]: 130.4 % of control
In Vivo LVh 3 mg/kg 8 h, remaining FAAH activity [3]: 132.3 % of control

CN(Cc1ccccc1)C(=O)n1nnc2ccccc21 [Compound 53, N-benzyl-N-methyl-1H-benzo[d][1,2,3]triazole-1-carboxamide]
In Vitro FAAH activity, 100 nM [1]: 0 % of control
In Vivo BRh 30 mg/kg 1 h, remaining FAAH activity [2]: 1.4 % of control
In Vivo LVh 30 mg/kg 1 h, remaining FAAH activity [3]: 6.3 % of control

O=C(N1CCC2(CC1)OCCO2)n1nnc2ccccc21 [Compound 55, 1H-benzo[d][1,2,3]triazol-1-yl(1,4-dioxa-8-azaspiro[4.5]dec-8-yl)methanone]
In Vitro FAAH activity, 100 nM [1]: 0.2 % of control
In Vivo BRh 3 mg/kg 8 h, remaining FAAH activity [2]: 42.6 % of control
In Vivo BRh 30 mg/kg 1 h, remaining FAAH activity [2]: 2.2 % of control
In Vivo LVh 3 mg/kg 8 h, remaining FAAH activity [3]: 37.8 % of control
In Vivo LVh 30 mg/kg 1 h, remaining FAAH activity [3]: 2.5 % of control

CN(C(=O)n1nnc2ccccc21)C1CCCCC1 [Compound 58, N-cyclohexyl-N-methyl-1H-benzo[d][1,2,3]triazole-1-carboxamide]
In Vitro FAAH activity, 100 nM [1]: 1 % of control
In Vivo BRh 3 mg/kg 8 h, remaining FAAH activity [2]: 0.5 % of control
In Vivo BRh 30 mg/kg 1 h, remaining FAAH activity [2]: 0.3 % of control
In Vivo LVh 3 mg/kg 8 h, remaining FAAH activity [3]: 0.3 % of control
In Vivo LVh 30 mg/kg 1 h, remaining FAAH activity [3]: 0.9 % of control

O=C(NCc1ccccc1)n1nnc2ccccc21 [Compound 61, N-benzyl-1H-benzo[d][1,2,3]triazole-1-carboxamide]
In Vitro FAAH activity, 100 nM [1]: 2.2 % of control
In Vivo BRh 30 mg/kg 1 h, remaining FAAH activity [2]: 87.5 % of control
In Vivo LVh 30 mg/kg 1 h, remaining FAAH activity [3]: 83.9 % of control

CN(C(=O)n1nnc2ccccc21)c1ccc(Cl)cc1 [Compound 63, N-(4-chlorophenyl)-N-methyl-1H-benzo[d][1,2,3]triazole-1-carboxamide]
In Vitro FAAH activity, 100 nM [1]: 12.6 % of control
In Vivo BRh 30 mg/kg 1 h, remaining FAAH activity [2]: 57 % of control
In Vivo LVh 30 mg/kg 1 h, remaining FAAH activity [3]: 49.7 % of control

CN(C(=O)n1nnc2ccccc21)c1ccc(F)cc1F [Compound 70, N-(2,4-difluorophenyl)-N-methyl-1H-benzo[d][1,2,3]triazole-1-carboxamide]
In Vitro FAAH activity, 100 nM [1]: 1.9 % of control
In Vivo BRh 30 mg/kg 1 h, remaining FAAH activity [2]: 52 % of control
In Vivo LVh 30 mg/kg 1 h, remaining FAAH activity [3]: 42.5 % of control

CC1(C)COCN1C(=O)n1nnc2ccccc21 [Compound 71, (1H-benzo[d][1,2,3]triazol-1-yl)(4,4-dimethyloxazolidin-3-yl)methanone]
In Vitro FAAH activity, 100 nM [1]: 2.3 % of control
In Vitro FAAH activity, 10 uM [1]: 0.1 % of control
In Vivo BRh 3 mg/kg 8 h, remaining FAAH activity [2]: 1.8 % of control
In Vivo BRh 30 mg/kg 1 h, remaining FAAH activity [2]: 0.3 % of control
In Vivo LVh 3 mg/kg 8 h, remaining FAAH activity [3]: 2.5 % of control
In Vivo LVh 30 mg/kg 1 h, remaining FAAH activity [3]: 2.2 % of control

CCCCN(C)C(=O)n1nnc2ccccc21 [Compound 75, N-butyl-N-methyl-1H-benzo[d][1,2,3]triazole-1-carboxamide]
In Vitro FAAH activity, 100 nM [1]: 0 % of control
In Vivo BRh 30 mg/kg 1 h, remaining FAAH activity [2]: 0.4 % of control
In Vivo LVh 30 mg/kg 1 h, remaining FAAH activity [3]: 2.7 % of control

O=C(N1CCC(Cc2ccccc2)CC1)n1cnc(-c2ccc(F)cc2F)n1 [Compound 79, (4-benzylpiperidin-1-yl)(3-(2,4-difluorophenyl)-1H-1,2,4-triazol-1-yl)methanone]
In Vitro FAAH activity, 100 nM [1]: 0.8 % of control
In Vivo BRh 3 mg/kg 8 h, remaining FAAH activity [2]: 70 % of control
In Vivo BRh 30 mg/kg 1 h, remaining FAAH activity [2]: 10.3 % of control
In Vivo LVh 3 mg/kg 8 h, remaining FAAH activity [3]: 45.2 % of control
In Vivo LVh 30 mg/kg 1 h, remaining FAAH activity [3]: 9.8 % of control
